Data taken from patent US12448369B2 (Edgewise Therapeutics, Inc., priority 2023, dated 2025).

Columns and labels:
[1] = target: T1, Porcine ventricle myofibrils (ventricular myosin ATPase) (Sus scrofa, UniProt P79293); assay: Myofibril ATPase assay, porcine ventricle myofibrils; format: biochemical, porcine (Yucatan minipigs); details: porcine ventricle myofibrils
T1 construct: Myofibrils from porcine cardiac muscle was isolated from the left ventricle of Yucatan minipigs; tissue Exemplar Genetics; host or cells: left ventricle of Yucatan minipigs, myofibrils prepared in house
Method: (§1) Example 1. Myofibril ATPase Assay
(§2) Myofibril ATPase assays are known in the art to be useful in evaluating small molecules for the treatment of HCM and other cardiac indications. Myosin ATPase activity is assessed by using a coupled reaction system, in which ADP generated by the myosin ATPase function is coupled to the disappearance of NADH through the pyruvate kinase/lactate dehydrogenase (PK-LDH) system. ATPase activity produces ADP, which is used as a substrate for PK to produce pyruvate and regenerate ATP. The pyruvate is then used as a substrate by LDH to oxidize NADH to NAD+. The rate of the reaction is monitored through the time-dependent disappearance of NADH using absorbance at 340 nm, which, when the couple system is in stoichiometric excess, is directly correlated to the ATPase activity of the myosin. Inhibition of ATPase activity by the assayed compounds is indicated by a reduced rate of NADH loss, relative to vehicle-treated controls, over the experimental time window. Activation of ATPase activity by the assayed compounds is indicated by an increased rate of NADH loss, relative to vehicle-treated controls, over the experimental time window. Rabbit Psoas, Porcine atria, and Porcine ventricle are the primary sources of myofibril material.
(§3) Materials: The following stock solutions and reagents were used in the Myofibril ATPase Assay:
(§4) Stock Solutions of pCa buffer. Combine PIPES, CaCl2, and EGTA solutions with water. Adjust pH to 7.0 and bring final volume to 100 mL.
(§5) Buffer A & Buffer B. Prepare buffers A and B according to the table below.
(§6) Myofibril ATPase Assay Procedure: BSA, ATP, NADH, PEP, and DTT solutions were thawed at room temperature, then transferred to ice. Pellet-frozen myofibrils were transferred with approximately twice the required volume into a sufficiently large tube and capped. Myofibrils were thawed by rolling in a water bath for approximately 15 min at room temperature and cooled on ice. Buffers A and B were prepared by adjusting volumes as necessary for required number of wells and stored on ice. 0.5 μL of the compounds to be assayed were added into wells. 25 μL of Buffer A was dispensed into the wells, followed by 25 μL of Buffer B. The wells were measured for absorbance at 340 nm, using a kinetic protocol in which the wells are read every 1.5-2 min for 75 min. Assay data analysis was performed using a python script that filtered the raw data to retain those points falling between a starting and ending time and between a maximum and minimum absorbance, then used the filtered time-domain 340 nm absorbance data in each well to calculate a slope via linear regression analysis in units of mAU/min. Compound slopes were normalized between 100% and 0% activity, where 100% represented the slope of wells containing only compound vehicle, and fit to a 4-parameter logistic model. In addition to the fit parameters, the EC25% values were calculated, relative to the 100% normalized value. Additionally, the Y125 values were calculated for compounds that increased myosin ATP-ase activity. Fit parameters, calculated effective concentrations, filtered raw data, and calculated slopes were exported, in addition to compound-specific graphs of normalized ATPase activity versus concentration in μM. Each value reported in Table 5, Table 6, and Table 7 is either a Y75 value or a Y125 value. Values without a double cross sign, ‡, are Y75 values, which reflect the concentration required to reduce myosin ATP-ase activity by 25% (e.g., Y-axis activity value is 75% of initial value), relative to myosin ATP-ase activity in the absence of exogenous compound.
Cardiac Myofibril Isolation:
Myofibrils from porcine cardiac muscle was isolated from the left ventricle of Yucatan minipigs. Myofibrils were prepared using a method based upon those described in Herrmann et al. (1993) and summarized here. […]

[2] = test system: Rabbit Psoas myofibrils (skeletal myosin ATPase); assay: Myofibril ATPase assay, rabbit psoas (skeletal) myofibrils; format: biochemical; details: rabbit psoas myofibrils
Method: as §1, §2, §3, §4, §5, §6
Skeletal Myofibril Isolation:
(§7) Myofibrils from various animals and tissue types were acquired from a variety of sources: rabbit psoas muscle was purchased from Pel-Freez Biologicals (Rogers, AR) and porcine cardiac muscle was purchased from Exemplar Genetics. All myofibrils were prepared using a method based upon those described in Herrmann et al. (1993) and summarized here. […]

[3] = test system: Porcine atria myofibrils (atrial myosin ATPase); assay: Myofibril ATPase assay, porcine atria myofibrils; format: biochemical; details: porcine atria myofibrils
Method: as §1, §2, §3, §4, §5, §6, §7

[4] = Y75 value (75% activity relative to no compound)
[5] = ‡ Y125 value, not a Y75 value (125% activity relative to no compound)

T1 sequence (P79293 whole entry): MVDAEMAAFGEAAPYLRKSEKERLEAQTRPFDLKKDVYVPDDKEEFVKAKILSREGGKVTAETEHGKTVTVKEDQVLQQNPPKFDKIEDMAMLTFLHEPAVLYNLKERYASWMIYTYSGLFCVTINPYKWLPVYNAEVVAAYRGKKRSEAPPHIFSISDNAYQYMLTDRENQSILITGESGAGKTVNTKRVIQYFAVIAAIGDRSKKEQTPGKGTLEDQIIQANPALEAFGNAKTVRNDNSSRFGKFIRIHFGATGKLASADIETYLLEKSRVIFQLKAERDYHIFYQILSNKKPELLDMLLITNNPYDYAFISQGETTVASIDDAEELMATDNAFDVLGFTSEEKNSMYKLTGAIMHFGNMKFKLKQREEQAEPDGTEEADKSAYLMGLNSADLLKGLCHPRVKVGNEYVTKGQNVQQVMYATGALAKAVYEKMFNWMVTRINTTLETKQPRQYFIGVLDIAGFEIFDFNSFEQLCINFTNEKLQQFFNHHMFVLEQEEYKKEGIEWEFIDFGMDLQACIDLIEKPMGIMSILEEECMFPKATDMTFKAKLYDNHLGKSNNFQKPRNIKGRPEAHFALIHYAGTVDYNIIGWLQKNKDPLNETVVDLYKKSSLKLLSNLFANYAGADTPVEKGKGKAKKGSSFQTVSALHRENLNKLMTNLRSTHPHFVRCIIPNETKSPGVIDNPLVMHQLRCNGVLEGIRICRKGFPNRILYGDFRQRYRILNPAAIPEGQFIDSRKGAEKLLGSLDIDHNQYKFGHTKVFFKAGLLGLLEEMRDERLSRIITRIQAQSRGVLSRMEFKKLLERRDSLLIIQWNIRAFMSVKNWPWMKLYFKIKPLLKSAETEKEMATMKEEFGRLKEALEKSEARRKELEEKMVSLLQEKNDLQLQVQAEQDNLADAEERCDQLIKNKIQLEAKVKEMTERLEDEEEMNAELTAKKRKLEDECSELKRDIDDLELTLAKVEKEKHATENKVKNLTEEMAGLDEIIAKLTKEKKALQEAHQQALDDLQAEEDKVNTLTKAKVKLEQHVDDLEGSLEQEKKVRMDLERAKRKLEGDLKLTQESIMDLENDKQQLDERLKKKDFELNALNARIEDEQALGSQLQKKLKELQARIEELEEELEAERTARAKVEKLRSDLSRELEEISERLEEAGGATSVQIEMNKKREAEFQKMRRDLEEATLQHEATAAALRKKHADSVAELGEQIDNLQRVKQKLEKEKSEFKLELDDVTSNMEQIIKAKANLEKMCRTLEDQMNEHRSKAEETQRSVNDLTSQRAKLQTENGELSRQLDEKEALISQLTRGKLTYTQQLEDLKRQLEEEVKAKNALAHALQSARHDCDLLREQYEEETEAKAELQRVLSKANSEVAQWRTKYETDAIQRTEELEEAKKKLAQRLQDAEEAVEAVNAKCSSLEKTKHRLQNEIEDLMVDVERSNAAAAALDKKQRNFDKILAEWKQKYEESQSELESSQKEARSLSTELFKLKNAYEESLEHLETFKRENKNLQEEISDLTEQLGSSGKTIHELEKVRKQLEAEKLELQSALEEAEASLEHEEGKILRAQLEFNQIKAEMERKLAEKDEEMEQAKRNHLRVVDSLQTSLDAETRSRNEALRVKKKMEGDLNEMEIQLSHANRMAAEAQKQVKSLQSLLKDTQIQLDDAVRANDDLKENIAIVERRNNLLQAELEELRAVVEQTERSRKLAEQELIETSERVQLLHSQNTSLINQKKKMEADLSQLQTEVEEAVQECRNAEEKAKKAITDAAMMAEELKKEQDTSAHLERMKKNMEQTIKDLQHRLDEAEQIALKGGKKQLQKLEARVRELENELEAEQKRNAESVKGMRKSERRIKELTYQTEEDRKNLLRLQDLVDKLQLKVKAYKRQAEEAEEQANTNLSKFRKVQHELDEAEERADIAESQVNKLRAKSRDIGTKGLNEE

Structure (SMILES) | Ventricular EC25 ([1]; Y75 value (no ‡ mark)) [µM] | Skeletal EC25 ([2]; Y75 value (no ‡ mark)) [µM] | Atrial EC25 ([3]; Y75 value (no ‡ mark)) [nM] | Ventricular EC25 ([1]; Y75 value) [µM] | Skeletal EC25 ([2]; Y75 value) [µM] | Atrial EC25 [3, 4] [nM] | Skeletal EC25 [2, 5] | Ventricular EC25 [1, 5]
C[C@H](NC(=O)Cc1c(C(F)F)c2cc(F)ccc2[nH]c1=O)c1ccc(F)cc1F [compound 106] | 0.20 | 0.04 | 50 | – | – | – | – | –
C[C@H](NC(=O)Cc1cc2cc(C3CC3)ccc2[nH]c1=O)c1ccc(F)cc1F [compound 117] | 100.00 | 6.32 | 100000 | – | – | – | – | –
Cc1c(CC(=O)N[C@H](C)c2ccc(C#N)cn2)c(=O)[nH]c2ccnc(C(F)(F)F)c12 [compound 155] | – | – | – | 62.81 | 1.24 | 6060 | – | –
Cc1nccc2[nH]c(=O)c(CC(=O)N[C@@H](C)c3ccncc3)c(C)c12 (single isomer, unassigned) [compound 334] | – | – | – | 100.00 | 100.00 | 100000 | – | –
C[C@H](NC(=O)[C@@H](C)c1cc2nc(F)ccc2[nH]c1=O)c1ccc(F)cc1F (single isomer, unassigned) [compound 364] | – | – | – | 4.71 | 0.44 | 1160 | – | –
C[C@H](NC(=O)[C@H](C)c1cc2c(F)cccc2[nH]c1=O)c1ccc(F)cc1F (single isomer, unassigned) [compound 103] | 100.00 | 1.64 | 1130 | – | – | – | – | –
Cc1nccc2[nH]c(=O)c(CC(=O)N[C@@H](C)c3ccccc3O)c(C)c12 (single isomer, unassigned) [compound 321] | – | – | – | 100.00 | 100.00 | 100000 | – | –
C[C@@H](NC(=O)Cc1c(C2CC2)c2c(F)cccc2[nH]c1=O)c1ncc(C#N)cc1F [compound 1143] | 4.45 | 1.78 | 1440 | – | – | – | – | –
CCOc1ccc2[nH]c(=O)c(CC(=O)N[C@@H](C)c3ccc(F)cc3F)c(C)c2n1 [compound 414] | – | – | – | 13.93 | 0.03 | 160 | – | –
C[C@H](NC(=O)[C@@H](C)c1c(C(F)(F)F)c2cc(F)ccc2[nH]c1=O)c1ccc(F)cc1F (single isomer, unassigned) [compound 57] | 100.00 | 0.07 | 150 | – | – | – | – | –
Cc1nccc2[nH]c(=O)c(CC(=O)N[C@@H]3CCc4cc(C#N)cnc43)c(C)c12 (single isomer, unassigned) [compound 233] | – | – | – | 100.00 | 5.72 | 100000 | – | –
COc1nccc2[nH]c(=O)c(CC(=O)N[C@@H](C)c3ccc(F)cc3F)c(C)c12 [compound 385] | – | – | – | 0.33 | 0.03 | 60 | – | –
Cc1cc(C#N)nnc1[C@@H](C)NC(=O)Cc1c(C)c2c(F)c(F)ccc2[nH]c1=O [compound 1135] | 5.94 | 2.90 | 590 | – | – | – | – | –
Cc1c(CC(=O)N[C@@H](C)c2ncc(C#N)cc2F)c(=O)[nH]c2cccc(F)c12 [compound 52] | 0.10 | 0.02 | 60 | – | – | – | – | –
Cc1cccc([C@H](CO)NC(=O)Cc2c(C)c3c(C)nccc3[nH]c2=O)c1 (single isomer, unassigned) [compound 313] | – | – | – | 100.00 | 100.00 | 100000 | – | –
Cc1c(F)ccc2[nH]c(=O)c(C(F)(F)C(=O)N[C@H](C)c3ncc(C#N)cn3)c(C)c12 (single isomer, unassigned) [compound 4831] | 0.39 | 0.06 | 120 | – | – | – | – | –
Cc1c(CC(=O)N[C@H](C)c2ccc(C#N)cc2F)c(=O)[nH]c2ccc(F)c(C#N)c12 [compound 67] | 0.26 | 0.03 | 110 | – | – | – | – | –
Cc1c(C2(C(=O)N[C@H](C)c3ncc(C#N)cc3F)CC2)c(=O)[nH]c2ccc(F)c(C#N)c12 (single isomer, unassigned) [compound 2523] | 0.74 | – | 190 | – | – | – | 100.00‡ μM | –
Cc1c([C@H](C)C(=O)N[C@@H](C)c2ccc(F)cc2F)c(=O)[nH]c2ccc(F)c(F)c12 (single isomer, unassigned) [compound 112] | 0.31 | 0.03 | 60 | – | – | – | – | –
Cc1c(CC(=O)N[C@@H](C)c2ccc(F)cc2F)c(=O)[nH]c2cccc(F)c12 [compound 130] | 0.15 | 0.03 | 20 | – | – | – | – | –
Cc1c(CC(=O)N[C@H](C)c2ccc(C#N)cn2)c(=O)[nH]c2cc(F)c(F)cc12 [compound 1112] | 2.09 | 3.86 | 5010 | – | – | – | – | –
C[C@H](NC(=O)Cc1c(C2CC2)c2cnccc2[nH]c1=O)c1ccc(F)cc1F [compound 444] | – | – | – | 20.82 | 0.17 | 1140 | – | –
CC#Cc1nccc2[nH]c(=O)c(CC(=O)N[C@@H](C)c3ccc(F)cc3F)c(C)c12 [compound 350] | – | – | – | 1.99 | 0.06 | 990 | – | –
Cc1nccc2[nH]c(=O)c(CC(=O)N[C@H]3CCc4cc(F)cc(F)c43)c(C)c12 [compound 406] | – | – | – | 0.38 | 0.02 | 100 | – | –
Cc1c(CC(=O)N[C@H](CO)c2ccc(C#N)cc2F)c(=O)[nH]c2cnnc(C#N)c12 [compound 175] | – | – | – | 100.00 | 100.00 | 100000 | – | –
Cc1c(C(F)(F)C(=O)N[C@@H](C)c2cccc(C#N)n2)c(=O)[nH]c2ccc(F)cc12 (single isomer, unassigned) [compound 2566] | – | – | 100000 | – | – | – | 100.00‡ μM | 100.00‡ μM
C[C@H](NC(=O)Cc1c(C2CC2)c2c(F)c(F)ccc2[nH]c1=O)c1ccc(C#N)cn1 [compound 26] | 1.40 | 0.21 | 6130 | – | – | – | – | –
COc1nccc2[nH]c(=O)c([C@@H](C)C(=O)N[C@@H](C)c3ccc(F)cc3F)c(C(F)(F)F)c12 (single isomer, unassigned) [compound 425] | – | – | – | 100.00 | 1.31 | 94540 | – | –
Cc1c(CC(=O)N[C@@H](C)c2ccc(F)cc2F)c(=O)[nH]c2ccnc(NC3CC3)c12 [compound 276] | – | – | – | 15.06 | 0.14 | 1250 | – | –
Cc1nc(C#N)cnc1[C@@H](C)NC(=O)C(F)(F)c1c(C)c2cc(F)ccc2[nH]c1=O (single isomer, unassigned) [compound 2567] | 1.07 | 0.33 | 340 | – | – | – | – | –
